Data: patent publication US12186327B2, “Oral allopregnanolone compositions and methods of use” (Lipocine Inc., priority 2022, dated 2025)
Values after ≈ are worked out from the molar mass of the structure shown. Where two headings read alike, the source gives them in different places.

Key:
[1] = 30 mg capsule, cited from earlier work
[2] = once daily 30 mg capsule, 14 day treatment; cited from earlier work
a1b2g2 GABAA receptor = a1b2g2 GABAA receptor (Homo sapiens, UniProt P14867+P47870); conditions: synaptic GABAA receptor; cited from earlier work
Chain of a1b2g2 GABAA receptor (P14867 28-456): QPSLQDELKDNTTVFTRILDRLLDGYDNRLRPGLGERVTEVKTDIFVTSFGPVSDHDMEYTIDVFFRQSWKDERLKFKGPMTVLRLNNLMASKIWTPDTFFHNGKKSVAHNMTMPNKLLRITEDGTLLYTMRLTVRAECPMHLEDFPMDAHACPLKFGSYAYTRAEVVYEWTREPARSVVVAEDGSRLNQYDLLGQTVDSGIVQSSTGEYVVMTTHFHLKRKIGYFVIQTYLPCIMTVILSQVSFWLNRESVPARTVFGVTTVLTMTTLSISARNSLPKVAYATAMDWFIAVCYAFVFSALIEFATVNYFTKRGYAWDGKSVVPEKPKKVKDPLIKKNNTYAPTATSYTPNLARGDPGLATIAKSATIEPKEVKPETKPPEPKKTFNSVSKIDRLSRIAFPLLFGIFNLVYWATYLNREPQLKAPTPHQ
Chain of a1b2g2 GABAA receptor (P47870 25-512 limits assumed): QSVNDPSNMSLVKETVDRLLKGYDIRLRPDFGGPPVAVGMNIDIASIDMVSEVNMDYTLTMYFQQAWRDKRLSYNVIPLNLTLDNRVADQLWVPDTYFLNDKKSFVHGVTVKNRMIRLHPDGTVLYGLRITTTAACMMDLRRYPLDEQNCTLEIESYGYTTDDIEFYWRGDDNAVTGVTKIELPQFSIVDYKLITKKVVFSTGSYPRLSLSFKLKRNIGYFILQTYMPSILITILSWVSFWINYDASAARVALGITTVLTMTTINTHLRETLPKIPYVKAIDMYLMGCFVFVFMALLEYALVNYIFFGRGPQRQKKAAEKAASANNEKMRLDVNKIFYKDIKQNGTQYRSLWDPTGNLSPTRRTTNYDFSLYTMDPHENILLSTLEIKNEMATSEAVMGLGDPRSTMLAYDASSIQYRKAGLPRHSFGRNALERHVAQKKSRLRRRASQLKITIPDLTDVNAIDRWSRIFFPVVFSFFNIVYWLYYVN
Chain of a1b2g2 GABAA receptor (P18507 40-475 partner): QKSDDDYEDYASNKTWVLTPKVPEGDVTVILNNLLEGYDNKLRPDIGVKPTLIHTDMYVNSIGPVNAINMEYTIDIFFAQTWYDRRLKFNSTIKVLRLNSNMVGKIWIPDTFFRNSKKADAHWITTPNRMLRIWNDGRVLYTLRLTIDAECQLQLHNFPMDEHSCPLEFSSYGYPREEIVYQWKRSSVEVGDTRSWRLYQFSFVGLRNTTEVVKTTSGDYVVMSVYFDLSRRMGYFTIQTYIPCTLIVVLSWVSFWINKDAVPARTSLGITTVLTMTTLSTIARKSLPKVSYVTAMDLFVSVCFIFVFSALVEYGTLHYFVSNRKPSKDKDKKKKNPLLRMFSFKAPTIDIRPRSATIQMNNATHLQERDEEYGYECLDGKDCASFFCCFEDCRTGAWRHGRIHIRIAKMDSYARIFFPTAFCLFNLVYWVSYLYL

[3] = in vivo; cited from earlier work
[4] = Allopregnanolone solubility in SBE-β-CD solution; assay type: physicochemical; conditions: for solubility: aqueous with cosolvent or surfactant or cyclodextrin
Method: The solubilized fraction of allopregnanolone began to decline, as observed by precipitation, when allopregnanolone concentration was above 8 mg/ml. The amount of allopregnanolone in the cyclodextrin solution can only be enabled by up to about 0.6% w/w loading amount of the composition fill. Moreover, high cyclodextrin amounts required to solubilize allopregnanolone also present safety concerns. In some aspects, the compositions and dosage forms of this invention can comprise higher allopregnanolone loading amounts (>5 mg/ml or 5 mg/g) than ones formulated in non-encapsulated SBE-β-CD or any cyclodextrin solution composition.

[5] = oral daily doses of 16-24 g for 14 days, human volunteers; cited from earlier work

C[C@@]1(O)CC[C@H]2[C@H](CC[C@@H]3[C@@H]2CC[C@]2(C)[C@@H](C(=O)Cn4cc(C#N)cn4)CC[C@@H]32)C1 [ZURANOLONE]
Cmax ([1]; single dose with a standard fat meal): about 64 ng/ml | Cmax ([1]; single dose, fasted condition): about 23 ng/ml | efficacy in postpartum depression [2]: acceptable efficacy | less potent than allopregnanolone, based on a1b2g2 Qpatch EC50 (a1b2g2 GABAA receptor): about 33%

CC(=O)[C@H]1CC[C@H]2[C@@H]3CC[C@H]4C[C@H](O)CC[C@]4(C)[C@H]3CC[C@]12C [allopregnanolone, 3α-hydroxy-5α-pregnan-20-one]
oral bioavailability [3]: low | solubility ([4]; cyclodextrin (SBE-β-CD) solution, read-out: allopregnanolone concentration above which the solubilized fraction declined (precipitation)): > 8000 µg/mL | solubility ([4]; in 24% w/v non-encapsulated SBE-β-CD solution, read-out: allopregnanolone solubility): ~6000 µg/mL (≈ 18.8 mM) | loading amount of the composition fill enabled in cyclodextrin solution ([4]; cyclodextrin solution): up to 0.6 % w/w

hydroxy propyl-β-CD
digestive problems [5]: increased incidence of soft stools and diarrhea
